Consider 1 compound from ChEMBL document CHEMBL5620344, “Discovery of novel 5-(2-hydroxyphenyl)-2-phthalide-3(3H)-pyrazolones as balanced multifunctional agents against Alzheimer's disease” (Eur J Med Chem, 2023).

Active and inactive are the calls of the source. The calls are words filed in the database; no cut-off is given here.

The subject of data set [1] is BV-2. The data set can be described thus: Anti-neuroinflammatory activity against LPS-stimulated mouse BV-2 cells assessed as inhibition of NO release at 0.5 uM incubated for 24 hrs by Griess reagent based assay. In kind it is functional. Background: Nitrite, measured by Griess reagent, commonly stands in for NO production.
Data set [2] in a line: Metal chelating activity assessed as compound-Al3+ complex formation by measuring blue shift of maximum absorption peak at 37.5 uM in presence of AlCl3 by UV-Vis spectrometry.
Data set [3] addresses Amyloid-beta precursor protein (Homo sapiens) (UniProt P05067). Kind of data set: Inhibition of self-induced amyloid beta (1 to 42) (unknown origin) aggregation at 25 uM by ThT fluorescence assay.
The nature of data set [4]: AUC (0 to t) in BALB/c mouse brain at 30 mg/kg, ig. In kind it is ADME, organism-based. The conditions noted are these: in vivo, po.
Data set [5] concerns Mus musculus. The data set can be described thus: Antialzheimer activity against amyloid beta (1-42)-induced alzheimer's disease mouse model assessed as decrease in cognitive impairment by measuring decrease in escape latency time during training phase at 8 to 32 mg/kg and measured for 5 days by Morris water maze test. Conditions: dose 8-32 mg/kg, time 5.0 day. In kind it is functional, organism-based.

The test system of data set [6] is Mus musculus. The data set can be described thus: Anti-oxidative stress against amyloid beta (1-42)-induced alzheimer's disease mouse model assessed as increase in SOD activity in hippocampus at 8 to 32 mg/kg and measured on day 6. Conditions: dose 8-32 mg/kg, time 6.0 day. In kind it is functional, organism-based.
Data set [7] deals with BV-2. The data set can be described thus: Anti-neuroinflammatory activity against LPS-stimulated mouse BV-2 cells assessed as inhibition of TNF-alpha release at 0.5 uM by ELISA. In kind it is functional.
For data set [8], the target named is Amyloid-beta precursor protein (Homo sapiens) (UniProt P05067). The data set can be described thus: Inhibition of self-induced amyloid beta (1 to 42) (unknown origin) aggregation assessed as short and thin fibrils incubated for 24 hrs by transmission electron microscopy.
Sequence of Amyloid-beta precursor protein (Homo sapiens) (P05067 whole entry): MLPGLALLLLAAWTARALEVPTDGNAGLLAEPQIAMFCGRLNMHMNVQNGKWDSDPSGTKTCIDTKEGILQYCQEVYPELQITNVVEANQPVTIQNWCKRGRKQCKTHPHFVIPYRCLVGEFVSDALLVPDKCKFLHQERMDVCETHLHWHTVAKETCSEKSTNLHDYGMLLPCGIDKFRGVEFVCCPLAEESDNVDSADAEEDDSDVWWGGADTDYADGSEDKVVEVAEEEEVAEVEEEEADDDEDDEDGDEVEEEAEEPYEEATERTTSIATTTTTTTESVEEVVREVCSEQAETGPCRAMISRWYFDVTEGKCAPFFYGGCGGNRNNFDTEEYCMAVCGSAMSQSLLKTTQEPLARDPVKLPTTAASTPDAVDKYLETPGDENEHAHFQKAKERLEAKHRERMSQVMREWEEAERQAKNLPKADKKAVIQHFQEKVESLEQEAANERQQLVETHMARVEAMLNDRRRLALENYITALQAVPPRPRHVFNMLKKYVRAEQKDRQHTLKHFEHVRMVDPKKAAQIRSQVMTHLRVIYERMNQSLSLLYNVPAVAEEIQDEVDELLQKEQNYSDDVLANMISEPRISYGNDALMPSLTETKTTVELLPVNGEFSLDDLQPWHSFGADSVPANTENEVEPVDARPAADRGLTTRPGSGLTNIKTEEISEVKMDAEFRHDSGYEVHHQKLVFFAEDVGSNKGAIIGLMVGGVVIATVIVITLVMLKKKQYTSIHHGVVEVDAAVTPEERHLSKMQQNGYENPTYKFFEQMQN
Data set [9] can be described thus: AUC (0 to t) in BALB/c mouse plasma at 30 mg/kg, ig. In kind it is ADME, organism-based. The conditions noted are these: po.
Data set [10] deals with Amyloid-beta precursor protein (Homo sapiens) (UniProt P05067). The data set can be described thus: Disaggregation of self-induced amyloid beta (1 to 42) (unknown origin) preformed fibrils at 25 uM by ThT fluorescence assay.
A short description of data set [11]: Permeability of the compound at 100 ug/ml by PAMPA-BBB assay. In kind it is ADME. The conditions noted are these: dose 100 µg/ml, read-out: permeability.
Data set [12] can be described thus: Tmax in BALB/c mouse plasma at 30 mg/kg, ig. Format: ADME, organism-based. Conditions: po.
Data set [13] is described as follows: Metal chelating activity assessed as compound-Zn2+ complex formation by measuring red shift of absorption peak with declined absorption at 37.5 uM in presence of ZnCl2 by UV-Vis spectrometry.
In data set [14] the test system is BV-2. The data set can be described thus: Anti-neuroinflammatory activity against LPS-stimulated mouse BV-2 cells assessed as inhibition of NO release at 10 uM incubated for 24 hrs by Griess reagent based assay. In kind it is functional.
The subject of the next data set is PC-12. Kind of data set: Neuroprotective activity against H2O2-induced cytotoxicity in rat PC12 cells assessed as cell viability at 1 uM by MTT assay (reference value: 54.9%). In kind it is functional. Conditions: read-out: Activity. Background: Tetrazolium dyes change colour on reduction, which living cells bring about.
Data set [15] in a line: Metal chelating activity assessed as compound-Cu2+ complex formation at stoichiometric ratio of 1:1 in presence of CuCl2 by UV-Vis spectroscopy.
In data set [16] the test system is Mus musculus. The data set can be described thus: Antialzheimer activity against amyloid beta (1-42)-induced alzheimer's disease mouse model assessed as decrease in amyloid beta (1 to 42) level in hippocampus at 32 mg/kg and measured on day 6 by ELISA. In kind it is functional, organism-based. Conditions: time 6.0 day.
Data set [17] relates to Mus musculus. The data set can be described thus: Antialzheimer activity against amyloid beta (1-42)-induced alzheimer's disease mouse model assessed as decrease in cognitive impairment by measuring increase in time spent in target quadrant in spatial probe trial at 8 to 32 mg/kg and measured on day 6 by Morris water maze test. Format: functional, organism-based. Conditions: dose 8-32 mg/kg, time 6.0 day.

The nature of data set [18]: Selectivity index, ratio of IC50 for human recombinant MAO-A to IC50 for human recombinant MAO-B.
Data set [19] concerns the target Amyloid-beta precursor protein (Homo sapiens) (UniProt P05067). Kind of data set: Inhibition of Cu2+-induced amyloid beta (1 to 42) (unknown origin) aggregation at 25 uM by ThT fluorescence assay.
For data set [20], the system named is BV-2. Kind of data set: Cytotoxicity against mouse BV-2 cells assessed as effect on cell viability at 2.5 to 25 uM by MTT assay. In kind it is toxicity, cell-based. The conditions noted are these: bv-2, 25 µM, dose 2.5-25 µM.
A short description of data set [21]: Metal chelating activity assessed as compound-Cu2+ complex formation by measuring red shift of absorption peak with declined absorption at 37.5 uM in presence of CuCl2 by UV-Vis spectrometry.
Data set [22] concerns BV-2. Kind of data set: Anti-neuroinflammatory activity against LPS-stimulated mouse BV-2 cells assessed as inhibition of TNF-alpha release at 2.5 uM by ELISA. In kind it is functional. (In general: ELISA stands for enzyme-linked immunosorbent assay.)

As a reminder, the inhibition is the change of the read-out against control, counted positive when it falls. For orientation: AUC(0-t) means exposure summed from dosing to a finite time, without extrapolation to infinity. High values mean more exposure, low ones less exposure. As usually defined, the Tmax is the time at which the peak concentration occurs. For the compound `CCCCCCCC1OC(=O)c2cc(N3N=C(c4cc(Cl)ccc4O)CC3=O)ccc21` (stereo not drawn), the results for the inhibition at 0.5 µM in the data set on BV-2 [1] and in the data set with BV-2 [7] were 25.9% and 22.7%, respectively. Also, the outcome (in data set [2]; in the data set on Mus musculus [5]; in data set [13]; in data set [15]; in the data set with Mus musculus [16]; in the data set with Mus musculus [17]) was Active. The result in data set [21] was Active. The inhibition in data set [3] was determined as 56%; in [19], 57.5%. The compound further gave an AUCt in data set [4] of 2032.5 ng·h/g. The Activity entry in the data set with Mus musculus [6] was “Dose-Dependent Effect”; in [10] it was 81.9%; in the data set on BV-2 [20], “Non-Toxic”. The inhibition entry in data set [8] is “Active”. For the same compound, the AUC(0-t) in [9] was found to be 2.94 µg·h/mL. For the same compound, the Papp at 100 ug/ml in [11] is 63.7 nm/s. Further, in data set [12], the Tmax was determined as 30 min. In addition, in the data set on BV-2 [14], the inhibition at 10 µM amounted to 76.3%. Further, in the data set on PC-12, the viability at 1 µM worked out at 66.9%. For the same compound, in data set [18], the Ratio IC50 was more than 24.4. The inhibition at 2.5 µM in the data set with BV-2 [22] turned out to be 51.6%.
